From the NIST ThermoML archive (doi:10.1016/j.jct.2011.11.019)
± gives the expanded uncertainty stated by the source.

Assay: xn = mol fraction of the nth substance listed
Conditions: 298.15 K, 101 kPa, Liquid, Vibrating tube method

Work on OC(C(F)(F)F)C(F)(F)F [1,1,1,3,3,3-hexafluoro-2-propanol] + O yielded a mass density (x1 = 0.1024) of 1261.96 ± 0.3 kg/m3, a mass density (x1 = 0.205) of 1387.36 ± 0.31 kg/m3 and a mass density (x1 = 0.3016) of 1455.74 ± 0.32 kg/m3. It also gave a mass density (x1 = 0.4067) of 1501.77 ± 0.36 kg/m3, a mass density (x1 = 0.4929) of 1527.75 ± 0.41 kg/m3 and a mass density (x1 = 0.5943) of 1550.19 ± 0.47 kg/m3. For the same compound, the mass density (x1 = 0.6411) was 1558.59 ± 0.5 kg/m3, the mass density (x1 = 0.8065) was 1585.8 ± 0.62 kg/m3 and the mass density (x1 = 0.9005) was 1593.04 ± 0.69 kg/m3.
